Laboratory results: patent US7648999B2, “Activator for peroxisome proliferator-activated receptor δ” (Nippon Chemiphar Co., Ltd., priority 2007, dated 2010)
Read-outs that look alike come from different tables or passages of the source.

Experiments:
Assay type in all cases: cell-based
PPARα (GAL4-hPPARα LBD) = target: T1, PPARα (GAL4-hPPARα LBD) (Homo sapiens, UniProt Q07869); assay: PPARα transactivation activity (GAL4 chimera luciferase reporter in CV-1 cells)
T1 construct: Receptor expression plasmid (GAL4-hPPARα, LBD GAL4-hPPARγ LBD, GAL4-hPPARδ LBD); expressed in transfected cells; host or cells: CV-1 cells
T1 sequence (Q07869 239-466 limits assumed): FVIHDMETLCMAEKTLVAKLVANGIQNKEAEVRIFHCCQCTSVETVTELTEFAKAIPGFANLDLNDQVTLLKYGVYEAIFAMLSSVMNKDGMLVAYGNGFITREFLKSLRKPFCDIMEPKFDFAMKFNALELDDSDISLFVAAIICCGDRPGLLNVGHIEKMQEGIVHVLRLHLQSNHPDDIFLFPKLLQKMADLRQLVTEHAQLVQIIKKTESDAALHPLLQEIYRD

PPARδ (GAL4-hPPARδ LBD) = target: T2, PPARδ (GAL4-hPPARδ LBD) (Homo sapiens, UniProt Q03181); assay: PPARδ transactivation activity (GAL4 chimera luciferase reporter in CV-1 cells)
T2 construct: A chimeric receptor expression plasmid (GAL4-hPPARδ LBD), a reporter plasmid (UASx4-TK-LUC); expressed in transfected cells; host or cells: CV-1 cells
T2 sequence (Q03181 211-439 limits assumed): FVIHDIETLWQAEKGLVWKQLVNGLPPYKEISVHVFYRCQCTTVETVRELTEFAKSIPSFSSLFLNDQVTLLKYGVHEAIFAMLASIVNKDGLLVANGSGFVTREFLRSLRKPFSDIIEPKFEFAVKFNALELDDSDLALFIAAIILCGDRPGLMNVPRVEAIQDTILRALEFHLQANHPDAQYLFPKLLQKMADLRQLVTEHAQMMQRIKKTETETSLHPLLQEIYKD
Protocol: A chimeric receptor expression plasmid (GAL4-hPPARδ LBD), a reporter plasmid (UASx4-TK-LUC) and β-galactosidase (β-GAL) are transfected into CV-1 cells by utilizing a lipofection reagent DMRIE-C (Life Technologies).
(1) Measurement of PPARα, γ, δ Transactivation Activity
CV-1 cells were obtained from Tohoku University Aging Medical Laboratory, Medical Cell Collection Center. All test compounds were dissolved in dimethylsulfoxide (DMSO). Final concentration of DMSO was 0.1%.
CV-1 cells were seeded in 24 well culture plates at 2×10^5 cells per well, and cultured for 24 hours OPTI-MEM I Reduced Serum Medium (Life Technologies, 500 μL/well) containing 4%-fetal bovine serum (FBS). After washing with OPTI-MEM, transfection mixture (250 μL/well) containing 0.03 μg of GAL4-hPPARδ LBD, 0.25 μg of UASx-4-TK-LUC, 0.35 μg of βGAL, and 2 μL of lipofection reagent, DMRIE-C (Life Technologies) were added. The cells were incubated for 5 hours at 37° C.
The cells were washed and incubated for 40 hours in the presence of the test compound (final concentration was 10^−7M or 10^−6M)
The culture medium was removed and the cells were washed with PBS twice. A solubilizing buffer (100 μL/well) containing 25 mM Tris-PO4 (pH 7.8), 15% v/v glycerol, 2% CHAPS, 1% Lecithin, 1% BSA, 4 mM EGTA (pH 8.0), 8 mM MgCl2, 1 mM DTT was added. After the incubation for 10 minutes at room temperature, a portion (20 μL) of the solution was transferred into a 96-well plate. Subsequently, 100 μL of luciferase substrate solution (Piccagene: available from Nippon Gene Co., Ltd.) was added, and a luminous intensity per one second (luciferase activity) was measured using a microluminoreader (Type MLR-100, Corona Electrics Co., Ltd.). Each luciferase activity was corrected by the transfection efficiency which was calculated from β-galactosidase activity. The assay method of β-galactosidase activity was as follows: A portion (50 μL) of the solubilized sample was transferred into another 96-well plate; 100 μL of ONPG (2-nitrophenyl-β-galactopyranoside) solution was added and incubated for 5 minutes at room temperature. 50 μL of a reaction stopping solution (1M sodium carbonate solution) was added. Then the absorbance at 414 nm was measured.

PPARγ (GAL4-hPPARγ LBD) = target: T3, PPARγ (GAL4-hPPARγ LBD) (Homo sapiens, UniProt P37231); assay: PPARγ transactivation activity (GAL4 chimera luciferase reporter in CV-1 cells)
T3 construct: Receptor expression plasmid (GAL4-hPPARα, LBD GAL4-hPPARγ LBD, GAL4-hPPARδ LBD); expressed in transfected cells; host or cells: CV-1 cells
T3 sequence (P37231 238-503 limits assumed): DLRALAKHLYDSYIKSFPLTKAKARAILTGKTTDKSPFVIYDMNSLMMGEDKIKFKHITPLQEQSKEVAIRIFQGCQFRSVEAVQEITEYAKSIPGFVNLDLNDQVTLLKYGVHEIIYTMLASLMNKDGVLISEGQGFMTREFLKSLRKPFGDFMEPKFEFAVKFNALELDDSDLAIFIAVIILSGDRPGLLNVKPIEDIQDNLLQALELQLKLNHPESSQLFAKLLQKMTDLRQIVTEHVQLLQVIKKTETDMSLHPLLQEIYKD

[1] = compound at 10^−7 M, CV-1 cells, 40 hours, positive control 10^−4 M WY-14643 = 100%
[2] = compound at 10^−7 M, CV-1 cells, 40 hours, positive control 10^−4 M L-165041 = 100%
[3] = compound at 10^−7 M, CV-1 cells, 40 hours, positive control 10^−5 M Rosiglitazone = 100%
[4] = compound at 10^−7 M (value without parentheses)
[5] = compound at 10^−6 M (value in parentheses)

Molecule | Relative activity for PPAR transactivation, α (PPARα (GAL4-hPPARα LBD); [4]) | Relative activity for PPAR transactivation, δ (PPARδ (GAL4-hPPARδ LBD); [4]) | Relative activity for PPAR transactivation, γ (PPARγ (GAL4-hPPARγ LBD); [4]) | also measured
4-[3-[4-Methyl-2-(4-trifluoromethyl)phenyl-5-thiazolyl]propionyl]-2-methylphenoxy]acetic acid [Example 44] |  |  |  | Relative activity for PPAR transactivation, α (PPARα (GAL4-hPPARα LBD)): (0) % of control; PPARδ transactivation activity / activating effect (in words) (PPARδ (GAL4-hPPARδ LBD)): inferior in the PPARδ transactivation activity; Relative activity for PPAR transactivation, δ (PPARδ (GAL4-hPPARδ LBD)): (38) % of control; Relative activity for PPAR transactivation, γ (PPARγ (GAL4-hPPARγ LBD)): (0) % of control
Cc1cc(C(=O)CCc2sc(-c3ccc(C(F)(F)F)cc3)nc2C(C)C)ccc1OCC(=O)O [Example 3, [4-[3-[2-(4-Trifluoromethyl)phenyl-4-isopropyl-5-thiazolyl]propionyl]-2-methylphenoxy]acetic acid] |  |  |  | Relative activity for PPAR transactivation, α (PPARα (GAL4-hPPARα LBD); [1]): 0 % of control; Relative activity for PPAR transactivation, δ (PPARδ (GAL4-hPPARδ LBD); [2]): 101 % of control; Relative activity for PPAR transactivation, γ (PPARγ (GAL4-hPPARγ LBD); [3]): 5 % of control
Cc1cc(C(=O)CCc2nc(-c3ccc(Cl)cc3O)oc2C(C)C)ccc1OCC(=O)O [Example 6, [4-[3-[2-(2-Hydroxy-4-chlorophenyl)-5-isopropyl-4-oxazolyl]propionyl]-2-methylphenoxy]acetic acid] |  |  |  | Relative activity for PPAR transactivation, α (PPARα (GAL4-hPPARα LBD); [1]): 0 % of control; Relative activity for PPAR transactivation, δ (PPARδ (GAL4-hPPARδ LBD); [2]): 73 % of control; Relative activity for PPAR transactivation, γ (PPARγ (GAL4-hPPARγ LBD); [3]): 6 % of control
CCCCCCc1nc(-c2ccc(C(F)(F)F)cc2)sc1CCC(=O)c1ccc(OCC(=O)O)c(C)c1 [Example 11, [4-[3-[4-Hexyl-2-(4-trifluoromethyl)phenyl-5-thiazolyl]propionyl]-2-methylphenoxy]acetic acid] | 0 % of control | 56 % of control | 1 % of control | 
CCCCCCc1nc(-c2ccc(C(F)(F)F)cc2)sc1CCC(=O)c1ccc(OC(C)(C)C(=O)O)c(C)c1 [Example 12, 2-[4-[3-[4-Hexyl-2-(4-trifluoromethyl)phenyl-5-thiazolyl]propionyl]-2-methylphenoxy]-2-methylpropionic acid] | 75 % of control | 45 % of control | 31 % of control | 
Cc1cc(C=CCc2sc(-c3ccc(C(F)(F)F)cc3)nc2C(C)C)ccc1OC(C)(C)C(=O)O [Example 13, 2-[4-[3-[4-Isopropyl-2-(4-trifluoromethyl)phenyl-5-thiazolyl]-1-propenyl]-2-methylphenoxy]-2-methylpropionic acid] | 63 % of control | 62 % of control | 17 % of control | 
Cc1cc(OCC(=O)O)ccc1C(=O)CCc1sc(-c2ccc(C(F)(F)F)cc2)nc1C(C)C [Example 14, [4-[3-[4-Isopropyl-2-(4-trifluoromethyl)phenyl-5-thiazolyl]propionyl]-3-methylphenoxy]acetic acid] | 0 % of control | 42 % of control | 0 % of control | 
Cc1cc(OC(C)(C)C(=O)O)ccc1C(=O)CCc1sc(-c2ccc(C(F)(F)F)cc2)nc1C(C)C [Example 16, [4-[3-[4-Isopropyl-2-(4-trifluoromethyl)phenyl-5-thiazolyl]propionyl]-3-methylphenoxy]-2-methylpropionic acid] | 62 % of control | 57 % of control | 3 % of control | 
CCCc1cc(C(=O)CCc2sc(-c3ccc(C(F)(F)F)cc3)nc2C(C)C)ccc1OCC(=O)O [Example 18, [4-[3-[4-Isopropyl-2-(4-trifluoromethyl)phenyl-5-thiazolyl]propionyl]-2-propylphenoxy]acetic acid] | 0 % of control | 70 % of control | 1 % of control | 
C=CCc1cc(C(=O)CCc2sc(-c3ccc(C(F)(F)F)cc3)nc2C(C)C)ccc1OCC(=O)O [Example 19, 2-Allyl-4-[3-[4-isopropyl-2-(4-trifluoromethyl)phenyl-5-thiazolyl]propionyl]phenoxyacetic acid] | 0 % of control | 86 % of control | 2 % of control | 
Cc1cc(C(=O)C=Cc2sc(-c3ccc(C(F)(F)F)cc3)nc2C(C)C)ccc1OCC(=O)O [Example 24, [4-[3-[4-Isopropyl-2-(4-trifluoromethyl)phenyl-5-thiazolyl]propenoyl]-2-methylphenoxy]acetic acid] | 0 % of control | 75 % of control | 0 % of control | 
Cc1cc(C(=O)C=Cc2sc(-c3ccc(C(F)(F)F)cc3)nc2C(C)C)ccc1OC(C)(C)C(=O)O [Example 25, 2-[4-[3-[4-Isopropyl-2-(4-trifluoromethyl)phenyl-5-thiazolyl]propenoyl]-2-methylphenoxy]-2-methylpropionic acid] |  | 61 % of control |  | 
CC(C)c1nc(-c2ccc(C(F)(F)F)cc2)sc1CCC(=O)c1ccc(OCC(=O)O)c(Cl)c1 [Example 33, [4-[3-[4-Isopropyl-2-(4-trifluoromethyl)phenyl-5-thiazolyl]propionyl]-2-chlorophenoxy]acetic acid] | 0 % of control | 44 % of control | 1 % of control | 
Cc1cc(C(=O)CCc2nc(-c3ccc(C(F)(F)F)cc3)sc2C(C)C)ccc1OCC(=O)O [Example 37, [4-[3-[5-Isopropyl-2-(4-trifluoromethyl)phenyl-4-thiazolyl]propionyl]-2-methylphenoxy]acetic acid] |  |  |  | Relative activity for PPAR transactivation, δ (PPARδ (GAL4-hPPARδ LBD)): (71) % of control
Cc1ccc(C(=O)CCc2sc(-c3ccc(C(F)(F)F)cc3)nc2C(C)C)cc1OCC(=O)O [Example 41, [5-[3-[4-Isopropyl-2-(4-trifluoromethyl)phenyl-5-thiazolyl]propionyl]-2-methylphenoxy]acetic acid] |  |  |  | Relative activity for PPAR transactivation, α (PPARα (GAL4-hPPARα LBD); [5]): (5) % of control; Relative activity for PPAR transactivation, γ (PPARγ (GAL4-hPPARγ LBD); [5]): (60) % of control
Cc1ccc(C(=O)CCc2sc(-c3ccc(C(F)(F)F)cc3)nc2C(C)C)cc1OC(C)(C)C(=O)O [Example 42, 2-[5-[3-[4-Isopropyl-2-(4-trifluoromethyl)phenyl-5-thiazolyl]propionyl]-2-methylphenoxy]-2-methylpropionic acid] |  |  |  | Relative activity for PPAR transactivation, α (PPARα (GAL4-hPPARα LBD); [5]): (68) % of control; Relative activity for PPAR transactivation, γ (PPARγ (GAL4-hPPARγ LBD); [5]): (55) % of control
[4-[3-[4-Isopropyl-2-(4-methoxyphenyl)-5-thiazolyl]propionyl]-2-methylphenoxy]propionic acid [Example 26] |  | 18 % of control |  | 
